Data: article PMC8179358, “An explicitly designed paratope of amyloid-β prevents neuronal apoptosis in vitro and hippocampal damage in rat brain” (Chemical Science, 2020)
*1 amine or outer side, *2 acyl side, *3 side chain or, on linkers, in order; H or OH if unused. Where a SMILES comes first, the peptide text is derived from it. Bridges are numbered along the chain shown (N, C = ends). Roman numbers before positions name the chains, in order. [ ]: non-standard residue; d: D form. X1 = O=C(CCCCC(=O)[*:2])NCCCOCCOCCOCCCNC(=O)CCC(=O)[*:1]; NMeF = CN[C@@H](Cc1ccccc1)C(=O)O; NMeL = CN[C@@H](CC(C)C)C(=O)O; NMeV = CN[C@H](C(=O)O)C(C)C

What was measured:
Aβ40 = molecular target: T1, Aβ40 (Homo sapiens, UniProt P05067); assay: NMR titration with SVD, residue-specific KD; type: binding; conditions: residues R5, L17, V24, K28, and G29 of Aβ40, read-out: dissociation constant (KD)
T1 construct: 15N labeled (a) Aβ40 (80 μM)

SH-SY5Y cells [1] = assay: Intracellular ROS (DCFH-DA); type: cell-based, human; conditions: Aβ40 10 μM, 24 h
From the text: (§1) Condensed or fragmented nuclear bodies characterize the distinctive nature of apoptotic cells. […] Dyshomeostasis of Ca^2+ is also responsible for the increased production of Aβ peptides, by which a degenerative feed-forward cycle is activated, resulting in accelerated apoptosis, synaptic dysfunction, and memory impairment.[49]
The release of cytosolic enzyme lactate dehydrogenase (LDH) into the culture medium indicates cell death due to the disruption of membrane integrity. Cell deathwas assessed by measuring LDH release in the culture medium by photocolorimetric kit according to the manufacturer’s protocol (Abcam, Cambridge, MA, USA). […]
Next, 50 µl culture supernatant was collected from each well and added to an assay mixture that was prepared by adding an equal amount of LDH substrate, co-factors, and dye solutions and incubated in the dark for 40mins at 37°C. […] Absorbance was measured at 490 nm with a reference filter of 660nm. […]
Generation of intracellular reactive oxygen species was measured by a spectrofluorimetric method using peroxide sensitive fluorescent probe 2′,7′-Dichlorofluorescin diacetate (DCFH-DA).11 In brief, SH-SY5Y […]
or both for 24h. […] Cells were then washed twice with PBS, and fluorescent intensity was measured by using a fluorescence microplate reader (Bio Rad, CA, USA) with an excitation filter of 490 nm and an emission filter of 520 nm.

SH-SY5Y cells [2] = assay: Intracellular Ca2+ (Fura-2AM); type: cell-based, human; conditions: Aβ40 10 μM, compared to untreated cells
From the text: as §1, with “impairment.[49] […]” for “impairment.[49]”
e. Measurement of intracellular calcium (Ca 2+)
Ca2+sensitive dye Fura-2AM was used to measure free intracellular Ca2+level in SH-SY5Y cell suspension by the previously described method.12 Following treatment with the respective drug, Fura-2 AM (Cayman, USA) at a concentration of 5 µM was added to the culture medium and incubated at 37°C for 45 min. Next, Krebs-Ringer-HEPES (KRH) buffer (135mM NaCl, 5mM KCl, 1mM MgSO4, 0.4mM KH2PO4, 1mM CaCl2, 5.5mM glucose, 20mM HEPES, pH 7.4) was used to wash each plate twice containing (1×10^6cells). Fluorescent microplate reader (FLX 800, Biotek, USA) was used to measure the fluorescence intensity with an excitation and emission spectra of […], respectively. Results are Mean±SEM of quadruplicate measurements from three separate experiments and expressed in the increase in percent relative fluorescent unit (RFU) relative to the baseline reading.
Western blot analysis was performed to measure Bax, Bcl-2, cleaved Caspase 9 and cleaved Caspase 3, pro and anti-apoptotic proteins expression. […]

| Molecule | Kd (Aβ40) | ROS marker intensity, Aβ40 alone (SH-SY5Y cells [1]) | intracellular Ca2+ level, Aβ40 alone (SH-SY5Y cells [2]) |
| --- | --- | --- | --- |
| CC(C)C[C@H](NC(=O)CNC(=O)CCC(=O)NCCCOCCOCCOCCCNC(=O)CCCCC(=O)NCC(=O)N(C)[C@@H](CC(C)C)C(=O)N[C@H](C(=O)N(C)[C@@H](Cc1ccccc1)C(=O)N[C@@H](Cc1ccccc1)C(=O)N[C@@H](C)C(N)=O)C(C)C)C(=O)N(C)[C@H](C(=O)N[C@@H](Cc1ccccc1)C(=O)N(C)[C@@H](Cc1ccccc1)C(=O)N[C@@H](C)C(N)=O)C(C)C [SP1] (I: GL[NMeV]F[NMeF]A-NH2 / II: G[NMeL]V[NMeF]FA-NH2; linker I:N-II:N via X1) | ~200 µM | – | – |
| Aβ40: commercially available Aβ40 peptide | – | increased in the presence of Aβ40 compared to untreated cells | significantly elevated intracellular Ca^2+ levels |
